Assay results as given in paper PMC3109731 (Journal of clinical psychopharmacology, 2010).

Assays:
[1] = cited from earlier work
[2] = system: pregnant women with major depressive disorder; assay: Depression level on the 17-item Hamilton Rating Scale for Depression; format: in vivo, human; conditions: for Mean HRS-D score: fluoxetine 10 to 80 mg daily
[3] = among the 16 subjects with 2 or more repeated depression scores

CNCCC(Oc1ccc(C(F)(F)F)cc1)c1ccccc1 (stereo not drawn) [FLX, fluoxetine]
Expected half-life [1]: 48 to 96 h | Time to reach steady-state concentration [1]: ≤ 23 days | Mean HRS-D score ([2]; 12 weeks postpartum): 7.6 ± 6.5 | Mean HRS-D score ([2]; 20 weeks of gestation): 7.3 ± 3.3 | Mean HRS-D score ([2]; 30 weeks of gestation): 8.7 ± 5.6 | Mean HRS-D score ([2]; 36 weeks of gestation): 7.1 ± 3.2 | Subjects with mild to moderate depression levels (HRS-D 12–22) [2, 3]: 3 subjects | Subjects with remitted depression (HRS-D ≤8) [2, 3]: 13 subjects | Mean HRS-D score ([2]; during delivery): 8.3 ± 5.9
